The values that follow come from patent US20220023172A1, “COSMETIC COMPOSITIONS AND METHODS OF USE” (STC.UNM, priority 2018, published 2022).

With `Fc1ccc(/C=C/c2cc(F)ccc2F)cc1`, the melting point (usually the temperature of the solid-liquid transition) was in the range of 76 to 77 °C.
Compound `Fc1ccc(/C=C/c2ccccc2F)cc1F` showed a melting point of 85 to 86 °C.
To `Fc1ccc(/C=C/c2ccccc2F)c(F)c1` belongs 84 to 85 °C; to `Fc1cccc(/C=C/c2ccc(F)c(F)c2)c1`, 48 to 49 °C; to `Fc1cccc(/C=C/c2cc(F)ccc2F)c1`, 73 to 74 °C.
Turning to `Fc1ccc(F)c(/C=C/c2ccccc2F)c1`, the melting point lay in the range of 79 to 81 °C.
To `COc1cccc(/C=C/c2ccc(F)cc2)c1OC` belongs 50 to 51 °C; to `Cc1ccc(/C=C/c2ccc(F)cc2F)cc1`, 72 to 73 °C; to `COc1ccc(OC)c(/C=C/c2ccc(F)cc2)c1`, 58 to 59 °C.
As for `COc1cccc(/C=C/c2ccc(C)cc2)c1OC`, the figure is 38 to 40 °C.
Consider `COc1cccc(/C=C/c2cc(OC)ccc2OC)c1`, for which the melting point fell in the range of 48 to 49 °C.
To `Cc1ccc(/C=C/c2ccc(F)c(F)c2)cc1` belongs 90 to 92 °C.
`COc1ccc(/C=C/c2ccc(F)c(F)c2)cc1` came in with a melting point of 73 to 74 °C.
To `COc1ccccc1/C=C/c1ccccc1F` belongs 34 to 35 °C; to `COc1cccc(/C=C/c2ccc(C(F)(F)F)cc2)c1OC`, 67 to 69 °C; to `Fc1cccc(/C=C/c2ccc(F)cc2F)c1`, 60 to 61 °C.
To `COc1ccc(/C=C/c2cc(F)ccc2F)cc1` belongs 109 to 110 °C; to `COc1cccc(/C=C/c2ccccc2OC)c1`, 49 to 50 °C.
